Data: PubChem BioAssay AID743128 (Broad Institute, 2013)
Where “and” joins values, the source holds several entries; their conditions need not be identical. Equal values may be shown once. Calls of active or inactive are those of the source.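 The calls were made as follows: active = compounds lowering the signal whose fitted half-maximal concentration is at most twice the top tested dose; inconclusive = flat curve with 30 to 70% inhibition, or poor fit; inactive = the rest.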

Legend:
[1] = antifungal activity, alamar blue, dry powder, counter-screen for C. neoformans cell wall antifungals, dose response (AID 743128); conditions: C. neoformans growth, alamar blue, 24 h; at 35 µM (top of the series)
[2] = system: C. neoformans growth, alamar blue, 24 h; assay: as above

O=c1[nH]c2ccccc2n1CCOc1ccccc1
activity change, negative = inhibition [1]: -1.57% (inactive) and -23.3% (inactive)

Cc1ccc(OCCn2c(=S)[nH]c3ccccc32)cc1
AC50 [2]: 9.48 µM

Cc1ccc(OCCn2c(=S)[nH]c3ccccc32)c(C(C)C)c1
AC50 [2]: 5.33 µM and 5.68 µM

Cc1ccccc1OCCn1c(=S)[nH]c2ccccc21
AC50 [2]: 8.04 µM

Cc1ccc(C(C)C)c(OCCn2c(=S)[nH]c3ccccc32)c1
AC50 [2]: 4.14 µM

Fc1ccccc1OCCn1c(=S)[nH]c2ccccc21
AC50 [2]: 25.4 µM

CCOC(=O)c1c(NC(=O)CN2CCN(C)CC2)sc(C)c1-c1ccc(C)cc1
AC50 [2]: 25.7 µM

CCOC(=O)c1c(NC(=O)CNCCN(C)C)sc(C)c1-c1ccccc1
activity change, negative = inhibition [1]: -16.3% (inactive)

COC(=O)C1=C(C)N(Cc2ccc(Cl)cc2)C(=S)NC1c1ccc(Br)cc1 (configuration not stated)
AC50 [2]: 1.97 µM

COC(=O)C1=C(C)N(Cc2ccc(Br)cc2)C(=S)NC1c1ccc(OC)cc1 (configuration not stated)
AC50 [2]: 9.31 µM

Cc1cccc(OCCn2c(=S)[nH]c3cc(C(F)(F)F)ccc32)c1
activity change, negative = inhibition [1]: 8.48% (inactive)

Fc1cccc2c1[nH]c(=S)n2CCOc1ccccc1
AC50 [2]: 25.4 µM

CCOC(=O)c1c(-c2ccc(C(C)(C)C)cc2)csc1NC(=O)CN1CCN(CC)CC1
AC50 [2]: 15.7 µM

S=c1[nH]c2ccccc2n1CCOc1ccccc1
AC50 [2]: 24.9 µM

CCOC(=O)c1c(-c2ccc(F)cc2)csc1NC(=O)CN1CCN(C)CC1
activity change, negative = inhibition [1]: -11.2% (inactive)

COC(=O)C1=C(C)N(Cc2ccc(Br)cc2)C(=S)NC1c1ccc(F)cc1 (configuration not stated)
AC50 [2]: 4.9 µM

CCOC(=O)c1c(-c2ccc(C(C)(C)C)cc2)csc1NC(=O)CN1CCN(C)CC1
AC50 [2]: 15 µM

COC(=O)C1=C(C)N(Cc2ccccc2)C(=S)NC1c1ccc(Br)cc1 (configuration not stated)
AC50 [2]: 8.1 µM

CCOc1ccc(OCCn2c(=S)[nH]c3ccccc32)cc1
AC50 [2]: 25.5 µM

CCOC(=O)c1c(-c2ccc(OC)cc2)csc1NC(=O)CN(C)CC(=O)N(C)C
activity change, negative = inhibition [1]: -14.4% (inactive)

S=c1[nH]c2cccc(Cl)c2n1CCOc1ccccc1
AC50 [2]: 6.35 µM

COC(=O)C1=C(C)N(Cc2ccc(F)cc2)C(=S)NC1c1cccc(F)c1 (configuration not stated)
AC50 [2]: 18.3 µM

S=c1[nH]c2ccccc2n1CCOc1ccc(Cl)cc1
AC50 [2]: 10.9 µM

c1ccc(OCCn2cnc3ccccc32)cc1
activity change, negative = inhibition [1]: -10.7% (inactive)

Cc1ccc2c(c1)[nH]c(=S)n2CCOc1ccccc1
AC50 [2]: 24.3 µM

CCOC(=O)c1c(-c2ccc(-c3ccccc3)cc2)csc1NC(=O)CNCCN(C)C
AC50 [2]: 21.7 µM

Cc1ccc(OCCn2c(SCCO)nc3ccccc32)c(C(C)C)c1
AC50 [2]: 25.1 µM
